From US9040713B2, “Methods of managing blood sugar levels and compositions related thereto” (EMORY UNIVERSITY, priority 2010, dated 2015)

Legend:
IR [1] = target: IR (Mus musculus, UniProt P15208); assay: IR phosphorylation and downstream signaling in mouse tissues; format: in vivo; settings: C57BL/6J mice, 20 mg/kg oral
Method: (§1) (A) DDN reduces blood glucose in C57BL/6J mice. […] Blood glucose was monitored before and after dosing at various time points as indicated (*: P<0.05, **: P<0.01; ***: P<0.001, n=10-13, Two-way ANOVA vs vehicle). (B) DDN provokes IR phosphorylation and its downstream signaling in C57BL/6J mice. Three month-old C57BL/6J mice were starved for 12 h and then orally administrated with vehicle (0.5% methylcellulose), DDN (20 mg/kg) or 2NH2-NQ (20 mg/kg). Cell lysates were prepared from liver and muscle tissues collected at 3, 4, and 5 h after drug administration and analyzed by immunoprecipitation and immunoblotting. (C) DDN quickly activates IR phosphorylation and its downstream signaling. Three-month-old C57BL/6J mice were starved for 12 h and then injected with vehicle, 5 mg/kg DDN or 5 mg/kg 2NH2-NQ through vena cava. After 5 min, the liver was collected and analyzed by immunobloting using specific antibodies.
Three-month-old mice were starved for 12 h and then orally administrated with vehicle (0.5% methylcellulose) or DDN (5 mg/kg). Cell lysates were prepared from liver and muscle tissues collected at 1 and 2 h after drug administration and analyzed by immunoprecipitation and immunoblotting. […] Three-month-old mice were starved for 12 h and then orally administrated with vehicle (0.5% methylcellulose) or DDN (5 mg/kg). Cell lysates were prepared from liver and muscle tissues collected at 1 and 2 h after drug administration and analyzed by immunoprecipitation and immunoblotting. (C) Hypoglycemic function of DDN in db/db mice. The animals were starved for 12 h and then orally injected with vehicle (0.5% methylcellulose) or DDN (5 mg/kg). […] Blood glucose was monitored before and after drug administration at 1-hour intervals (*: P<0.05, **: P<0.01, n=5, Two-way ANOVA vs vehicle). (D) DDN improves the glucose tolerance in ob/ob mice. The animals were starved for 12 h and then orally dosed with vehicle (0.5% methylcellulose) or DDN (5 mg/kg). […] A bonus of glucose (2 gm/kg) was injected intraperitoneally 1 hour later. Blood glucose was measured at 30-min intervals (*: P<0.05, **:P<0.01, n=5, Two-way ANOVA vs vehicle control).
(§2) (A) 4524-E7 provokes IR phosphorylation in various tissues of mice. Three-month-old C57BL/6J mice were starved for 12 h and then dosed with vehicle (0.5% methylcellulose) or 4524-E7 (20 mg/kg). Cell lysates from liver, muscle, and WAT were prepared at 3, 4, and 5 h after drug administration and analyzed by immunoblotting. (B) Basal and insulin-stimulated hepatic glucose production rates were measured by hyperinsulinemic-euglycemic clamp. […] (C) Hypoglycemic effect of 4524-E7 in C57BL/6J mice. C57BL/6J mice were starved for 12 h and then orally administrated with vehicle (0.5% methylcellulose) or 4524-E7 (5 mg/kg). Blood glucose was monitored at different time points as indicated (n=8, *: P<0.05, two-way ANOVA). (D) Hypoglycemic effect in db/db mice. db/db mice were starved for 12 h and then orally injected with vehicle (0.5% methylcellulose) or 4524-E7 (5 mg/kg). Blood glucose was monitored at different time points as indicated (n=5, *: P<0.05, two-way ANOVA). (E) Glucose tolerance test in ob/ob mice. The mice were starved for 12 hours and then orally administrated with vehicle or 4524-E7 (5 mg/kg). A bonus of glucose (2 gm/kg) was injected intraperitoneally 1 hour later. Blood glucose was then measured at 30 min intervals (n=13, *: P<0.05; **: P<0.01, two-way ANOVA).
After a 12 h fasting, C57BL/6J mice were orally administrated with 20 mg/kg of compound in 0.5% methylcellulose, and sacrificed at 3 h, 4 h and 5 h following compound administration. Fat tissues were dissected quickly and frozen on dry ice. Fat lysates were prepared and analyzed by Western blotting.

IR [2] = target: T1, IR (Homo sapiens, UniProt P06213); assay: Cell-based ELISA of IR tyrosine phosphorylation in CHO-IR cells; parameters: expressed in transfected cells; host or cells: CHO (CHO-IR, gift from Dr. Nicholas Webster, UCSD); settings: 5 μM, 15 min, CHO-IR cells, ELISA
Method: A cell-based screening assay was developed with Chinese hamster ovary cells stably transfected with IR (CHO-IR) by using an ELISA to determine the IR tyrosine phosphorylation. […] Other 1,4-Napthoquinones that are structurally related to 4524-E7 were evaluated.
CHO-IR cells were seeded in a 96-well plate at 15,000 cells per well in […] of 0.1% FBS medium with 0.1% FBS. […] Cells were lysed, and phosphorylated receptors were captured with pY20 immobilized on ELISA plates. Bound receptors were washed, then detected using an anti-IR beta antibody, followed by an horseradish peroxidase-conjugated secondary antibody and colorimetric detection with 3,3′,5,5′-tetramethylbenzidine.
(§3) A cell-based ELISA assay was developed with an IR stably transfected Chinese Hamster Ovary (CHO-IR) cell line. […] The cell lysates were subjected to the sandwich ELISA using immobilized anti-phosphotyrosine antibody and anti-IR antibody.

GST-IRTK = target: T2, GST-IRTK (Homo sapiens, UniProt P06213); assay: IR in vitro kinase assay (histone H2B phosphorylation); format: biochemical; settings: different concentrations of compound
T2 construct: GST-tagged IRTK (GST-IRTK, a.a. 1011-1382); purchased Invitrogen
Method: Parental CHO cells were used as a negative control (bottom panel). The fluorescence-labeled cells were analyzed on flow cytometry. (B) DDN binds to IRTK. UV-visible spectra were scanned from 200 to 800 nm for IRTK fragment in the presence of DDN or its analogue. When DDN binds to IRTK, it elicits the absorption alteration at 560 and 602 nm. (C) DDN protects IRTK from proteolysis. GST-IRTK was subjected to limited trypsin digestion in the presence of DDN (50 μM), ATP-γ-S (5 μM) or both. The reaction mixture was resolved by SDS-PAGE, followed by silver staining (D) DDN increases IRTK activity in vitro.
Parental CHO cells were used as a negative control (Bottom panel). The fluorescence-labeled cells were analyzed on flow cytometry. (B) 4524-E7 protects IRTK from proteolysis. GST-IRTK was subjected to limited trypsin or chymotrypsin digestion in the presence of 4524-E7 (50 μM), ATPyS (5 μM) or both at 37° C. for 5 min. The reaction mixture was resolved by SDS-PAGE, followed by silver staining Cleaved fragments were asterisked. (C) 4524-E7 increases IRTK activity in vitro. Recombinant GST-IRTK, GST-IGFRTK, and GST-EGFRTK were incubated with different concentrations of 4524-E7 or 10 μM 2—NH2-NQ and the kinase activity was examined by monitoring the phosphorylation of histone H2B. (E) In vitro kinase activity of various IRTK/IGF-1R kinase hybrids. The GFP-tagged kinases were expressed in HEK293, immunoprecipitated and incubated with different concentrations of 4524-E7 as indicated. […] Expressions of the kinases were also verified (lower panel).
Recombinant GST-IRTK was incubate with 50 mM tris-HCl (pH7.4), 10 mM MgCl2, and 50 μM ATP with different concentration of compound for 15 min at 25° C. Histone H2B (0.35 μg/ml) and [γ32P]ATP (0.25 μCi/ul) were added and the samples were further incubated for 10 min. The sample was separated on a SDS-polyacrylamide gel and autoradiographed.

C57BL/6J mice [3] = assay: Blood glucose level test in C57BL/6J mice; format: in vivo, mouse; settings: 20 mg/kg oral, 12 h starved
Method: as §1, §2
After a 12 h fasting, C57B5L/6J and db/db mice were bled from the tail vein for a baseline measurement with a glucometer (Accu-Chek; Roche Diagnostics, Indianapolis, Ind.). Afterward, animals were orally administered 5 mg/kg compound in 0.5% methylcellulose through a feeding needle. Blood glucose levels were measured at hourly intervals over 5 h.

EGFR = EGFR phosphorylation in cells (immunoblotting); format: cell-based; settings: HEK293 cells, 10 μM, 15 min
Method: (§4) (A) DDN and CSN activate IR and its downstream signaling in CHO-IR cells. […] The cell lysates were analyzed by immunoblotting with anti-phospho-IR antibodies, or immunoprecipitated by PY20 and analyzed using anti-IR and anti-IRS-1, respectively. (B) DDN and CSN induce IR phosphorylation in a dose-dependent manner. CHO-IR cells were treated with the small compounds at different concentrations for 15 min, and the IR phosphorylation was monitored by immunoprecipitation and immunoblotting. (C) DDN, CSN induce IR phosphorylation in a time-dependent manner. […] (D) DDN and CSN induce IR phosphorylation and its downstream signaling in a dose-dependent manner. […] (E) DDN and CSN cannot induce IGF-1R or EGFR phosphorylation. CHO-IGF-1R or HEK293 cells were treated with EGF (100 nM), IGF-1 (100 nM), DDN (10 μM) or CSN (10 μM) for 15 min. The cell lysates were analyzed by immunoblotting with anti-pIGF-1R and anti-pEGFR.
(§5) (A) Chemical structure of 4524-E7. (B) Effect of 4524-E7 and other 1,4-naphthoquinone derivatives on IR phosphorylation in CHO-IR cells. CHO-IR cells were cultured in 96-well plates and treated with 5 μM compounds for 15 min at 37 C. Cells were lysed, and IR phosphorylations were tested by ELISA. The IR phosphorylation activities of the tested compounds were expressed as a percentage of the vehicle. (C) 4524-E7 and 1,4-naphthoquinone derivates activate IR and its downstream signaling in CHO-IR cells. […] The cell lysates were analyzed by immunoblotting with various indicated antibodies. The phosphorylated IR was immunoprecipitated using PY20 and analyzed by immunoblotting with anti-IR13 antibody. […] The phosphorylation of each receptor was determined by Western blot using specific antibodies as indicated. (E) 4524-E7 activates IR through its ICD. Upper panel: Diagram of chimaeric receptors. Lower panel: His-tagged wild-type IR, IGFR-IR, IR-IGFR, and IR-EGFR constructs were transfected into CHO cells followed vehicle or 5 μM 4524-E7 treatment for 30 min. Then the cells were lysated and the transfected receptor fused to His tag were pulled down with Ni+ beads, followed by western blot against anti-p-Tyr and anti-His. The cell lysates were tested with anti-p-Akt and anti-Akt.
(§6) A cell-based ELISA assay was developed with an IR stably transfected Chinese Hamster Ovary (CHO-IR) cell line. The cells were seeded in a 96-well plate and treated with 10 μM (15 min) compounds. The cell lysates were subjected to the sandwich ELISA using immobilized anti-phosphotyrosine antibody and anti-IR antibody. […] Among the positive hits, 1,4-naphthoquinone compounds were identified that can selectively activate IR but not IGF-1R (FIG. 1A). […] Total IR tyrosine phosphorylation was further confirmed by immunoprecipitation using anti-phosphotyrosine (PY20) antibody (FIG. 2A, 3rd panel). […]

C57BL/6J mice [4] = assay: Lethality after administration to C57BL/6J mice; format: in vivo, mouse; settings: intraperitoneal, even at low doses (1 mg/kg)
Method: However, CSN was lethal to the mice even at low doses (1 mg/kg) (data not shown). […] The kinetics of DDN in lowering blood glucose is different from that of insulin.

IGF-1R = IGF-1R phosphorylation in cells (immunoblotting); format: cell-based; settings: CHO-IGF-1R cells, 10 μM, 15 min
Method: as §4, §5, §6

IR [5] = target: T1, IR; assay: Immunoblotting of IR phosphorylation and downstream signaling in CHO-IR cells; format: cell-based; parameters: expressed in transfected cells; host or cells: CHO (CHO-IR, gift from Dr. Nicholas Webster, UCSD)
Method: The cell lysates were analyzed by immunoblotting with anti-phospho-IR antibodies, or immunoprecipitated by PY20 and analyzed using anti-IR and anti-IRS-1, respectively. […] The cell lysates were analyzed by immunoblotting with anti-pIGF-1R and anti-pEGFR. […]
as §3

T1 sequence (P06213 763-1382 limits assumed): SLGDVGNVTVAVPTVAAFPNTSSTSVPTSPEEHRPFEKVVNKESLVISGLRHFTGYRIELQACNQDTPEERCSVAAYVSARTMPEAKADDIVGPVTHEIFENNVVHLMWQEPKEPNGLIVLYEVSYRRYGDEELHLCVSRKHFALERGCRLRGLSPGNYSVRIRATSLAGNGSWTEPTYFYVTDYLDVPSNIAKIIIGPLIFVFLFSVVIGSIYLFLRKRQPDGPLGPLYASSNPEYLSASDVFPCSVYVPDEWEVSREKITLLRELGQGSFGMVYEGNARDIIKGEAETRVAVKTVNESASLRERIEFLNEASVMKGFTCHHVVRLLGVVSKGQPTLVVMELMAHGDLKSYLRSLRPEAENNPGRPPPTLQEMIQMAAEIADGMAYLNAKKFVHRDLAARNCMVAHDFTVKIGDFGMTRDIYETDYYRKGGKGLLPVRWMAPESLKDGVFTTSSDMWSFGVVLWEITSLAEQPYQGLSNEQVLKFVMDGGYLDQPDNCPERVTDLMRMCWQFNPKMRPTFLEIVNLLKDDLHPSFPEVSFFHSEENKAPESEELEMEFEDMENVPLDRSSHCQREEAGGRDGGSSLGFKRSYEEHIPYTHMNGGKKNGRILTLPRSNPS
T1 sequence (P06213 28-758 limits assumed): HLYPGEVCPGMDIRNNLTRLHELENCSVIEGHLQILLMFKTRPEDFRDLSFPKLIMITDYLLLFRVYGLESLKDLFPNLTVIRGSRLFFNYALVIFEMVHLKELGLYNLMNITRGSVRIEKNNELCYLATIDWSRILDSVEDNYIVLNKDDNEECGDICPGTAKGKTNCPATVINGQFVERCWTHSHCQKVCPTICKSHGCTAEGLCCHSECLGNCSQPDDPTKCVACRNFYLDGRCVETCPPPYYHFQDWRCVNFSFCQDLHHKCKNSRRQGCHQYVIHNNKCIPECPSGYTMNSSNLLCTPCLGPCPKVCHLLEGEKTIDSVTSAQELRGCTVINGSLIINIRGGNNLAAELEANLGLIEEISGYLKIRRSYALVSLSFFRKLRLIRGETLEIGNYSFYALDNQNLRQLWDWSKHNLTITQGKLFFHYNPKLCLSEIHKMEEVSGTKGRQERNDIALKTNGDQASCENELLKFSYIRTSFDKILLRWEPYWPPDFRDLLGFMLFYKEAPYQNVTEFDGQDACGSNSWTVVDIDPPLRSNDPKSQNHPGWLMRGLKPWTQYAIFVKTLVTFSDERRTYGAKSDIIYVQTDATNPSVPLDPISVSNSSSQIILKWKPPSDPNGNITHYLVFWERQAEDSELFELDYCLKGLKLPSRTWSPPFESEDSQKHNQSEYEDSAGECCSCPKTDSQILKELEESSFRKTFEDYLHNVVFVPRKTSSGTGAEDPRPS
Chain of IR (Mus musculus, UniProt P15208) (P15208 28-1372): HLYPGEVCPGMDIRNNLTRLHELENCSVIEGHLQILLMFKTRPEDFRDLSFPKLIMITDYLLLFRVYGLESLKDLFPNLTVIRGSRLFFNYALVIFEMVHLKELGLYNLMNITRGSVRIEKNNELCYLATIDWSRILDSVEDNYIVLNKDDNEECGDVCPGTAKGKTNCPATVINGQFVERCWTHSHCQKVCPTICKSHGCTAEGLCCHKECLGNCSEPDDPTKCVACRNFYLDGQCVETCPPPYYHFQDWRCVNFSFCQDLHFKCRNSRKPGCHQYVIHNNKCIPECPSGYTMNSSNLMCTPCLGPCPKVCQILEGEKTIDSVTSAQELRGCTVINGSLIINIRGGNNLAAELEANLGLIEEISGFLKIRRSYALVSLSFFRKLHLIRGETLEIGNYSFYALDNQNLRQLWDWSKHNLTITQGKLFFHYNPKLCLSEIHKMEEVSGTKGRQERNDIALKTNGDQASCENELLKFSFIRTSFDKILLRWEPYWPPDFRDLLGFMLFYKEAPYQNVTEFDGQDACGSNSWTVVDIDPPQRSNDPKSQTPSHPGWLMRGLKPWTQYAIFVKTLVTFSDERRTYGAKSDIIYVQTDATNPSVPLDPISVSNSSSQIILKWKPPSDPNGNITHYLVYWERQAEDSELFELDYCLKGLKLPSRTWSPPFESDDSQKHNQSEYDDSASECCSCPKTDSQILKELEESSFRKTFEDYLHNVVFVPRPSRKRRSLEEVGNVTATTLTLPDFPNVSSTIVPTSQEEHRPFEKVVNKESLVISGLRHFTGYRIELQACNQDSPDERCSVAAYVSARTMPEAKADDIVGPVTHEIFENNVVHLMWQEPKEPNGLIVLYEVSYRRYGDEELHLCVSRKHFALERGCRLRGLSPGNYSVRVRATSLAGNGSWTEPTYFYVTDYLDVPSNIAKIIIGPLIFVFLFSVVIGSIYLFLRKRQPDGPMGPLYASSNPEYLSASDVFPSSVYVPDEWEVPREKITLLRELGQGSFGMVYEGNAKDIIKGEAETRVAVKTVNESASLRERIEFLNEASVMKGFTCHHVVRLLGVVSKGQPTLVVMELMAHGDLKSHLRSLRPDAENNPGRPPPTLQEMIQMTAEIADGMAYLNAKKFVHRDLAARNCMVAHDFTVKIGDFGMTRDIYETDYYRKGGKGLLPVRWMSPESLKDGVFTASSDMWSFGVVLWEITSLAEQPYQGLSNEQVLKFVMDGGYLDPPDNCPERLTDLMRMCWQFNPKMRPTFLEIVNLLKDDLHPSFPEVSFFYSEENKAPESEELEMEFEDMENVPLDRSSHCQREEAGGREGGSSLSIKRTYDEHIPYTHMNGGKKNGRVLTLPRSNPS
T2 sequence (P06213 1011-1382): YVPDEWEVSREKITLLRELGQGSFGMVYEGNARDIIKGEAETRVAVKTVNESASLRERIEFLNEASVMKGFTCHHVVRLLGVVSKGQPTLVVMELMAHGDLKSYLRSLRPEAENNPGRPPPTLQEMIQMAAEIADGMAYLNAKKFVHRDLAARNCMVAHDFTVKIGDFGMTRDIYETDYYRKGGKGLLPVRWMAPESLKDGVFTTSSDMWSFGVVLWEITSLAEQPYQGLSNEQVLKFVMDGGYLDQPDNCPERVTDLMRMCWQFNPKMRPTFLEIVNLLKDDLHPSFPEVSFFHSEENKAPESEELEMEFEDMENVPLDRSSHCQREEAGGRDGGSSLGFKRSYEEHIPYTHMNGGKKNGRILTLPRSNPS

SMILES | IR and IRS-1 tyrosine phosphorylation in liver and muscle (IR [1]) | IR phosphorylation (IR [2]) | IRTK kinase activity (histone H2B phosphorylation) (GST-IRTK) | blood glucose as compared to vehicle control (C57BL/6J mice [3]) | EGFR activation (EGFR) | lethality (C57BL/6J mice [4]) | IGF-1R activation (IGF-1R) | time at which IR activation peaked (IR [5]; 5 μM) [min] | time at which IR phosphorylation starts (IR [5]; 5 μM) [min] | tyrosine phosphorylation of IRS-1 (IR [5]; 5 μM, 15 min) | tyrosine phosphorylation of the IR β subunit in Y1146 and Y1158/1162/1163 (IR [5]; 5 μM, 15 min) | concentration stimulating the IR signal cascades (IR [5]; DDN or CSN 30 min, insulin 15 min) [µM]
NC1=CC(=O)c2ccccc2C1=O [2NH2-NQ, 2-amino-1,4-naphthoquinone, reference compound] | Neither IR nor IRS phosphorylations were increased | not active | inactive analogue | had no effect | – | – | – | – | – | – | – | –
CSC1=C(SC)C(=O)c2ccccc2C1=O [CSN, 2,3-Bis-methylsulfanyl-1,4-naphthoquinone] | – | – | – | – | Neither IGF-1R nor EGFR was activated | lethal to the animals | Neither IGF-1R nor EGFR was activated | 60 | 5 to 15 | also increased | strongly stimulated | 5
